Experimental data published in paper PMC10987949, “Inhibition of HIV-1 release by ADAM metalloproteinase inhibitors” (Frontiers in Microbiology, 2024).

Tests used:
[1] = test system: CD62L shedding; assay: Soluble CD62L ELISA, anti-CD3/PHA stimulated PBMC or CD4 T cells; type: cell-based, human
Protocol: PBMC from de-identified healthy donors were obtained with informed consent from the Department of Transfusion Medicine, National Institutes of Health under Biological reagent Registry RD-14-IX-12 approved by NIH biological safety board. […] IL-2 was added at a final concentration of 20 U/mL. CD3 antibody okt3 was used at ~0.2 μg/mL final concentration. […] Supernatants were collected and assessed using either the CD62L or TNF-α Duo Set ELISA kit according to manufacturer’s instructions (R&D Systems, Inc.). The viability of cells treated with compounds was assessed by acridine orange / propidiom iodide (AO/PI Logosbio catalog F23001) staining using Luna-FL cell counter following the manufacture’s instruction.^2

[2] = target: T1, recombinant ADAM17 (Homo sapiens, UniProt P78536); assay: Kinetic cleavage of fluorogenic TNF-α peptide ES003 by recombinant ADAM17; type: biochemical; conditions: 2 μM compound
T1 construct: purchased R&D systems, Inc
Text: (§1) A fluorescence based enzymatic assay was used to measure the cleavage of fluorogenic TNF-α and L-selectin (CD62L) peptides by either recombinant ADAMs or PBMC from healthy donors. The fluorogenic substrate, synthesized by Biomatik^3, was a Dabcyl (4-(4-dimethylaminophenylazo)benzoyl)- and Edans (5-[(2-aminoethyl)amino]naphthalene-1-sulfonic acid)- conjugated 12 amino acid peptide: Dabcyl-[…]-Edans that corresponds to the extracellular membrane proximal region of CD62L. […] The cleavage was measured in a kinetic assay every 3 min for 4 h in black 96-well plates using a Synergy_h1 fluorescent plate reader (BioTek) with 340 nm excitation and 490 nm emission wavelengths. […] PBMC were stimulated with anti-CD3 antibody for 2–4 days as described above.
(§2) 96-well plate with data recorded every 3 minutes for 4 hours using a Synergy_h1 fluorescent plate reader. Each enzymatic reaction contained 50 -200 ng
(§3) Figure 2B and 2C bar diagrams are generated using the
(§4) data points at 4 hour time point of the enzymatic cleavages.

[3] = target: T2, recombinant ADAM10 (Homo sapiens, UniProt O14672); assay: Kinetic cleavage of fluorogenic TNF-α peptide ES003 by recombinant ADAM10; type: biochemical; conditions: 2 μM compound
T2 construct: purchased R&D systems, Inc
T2 sequence (O14672 214-748): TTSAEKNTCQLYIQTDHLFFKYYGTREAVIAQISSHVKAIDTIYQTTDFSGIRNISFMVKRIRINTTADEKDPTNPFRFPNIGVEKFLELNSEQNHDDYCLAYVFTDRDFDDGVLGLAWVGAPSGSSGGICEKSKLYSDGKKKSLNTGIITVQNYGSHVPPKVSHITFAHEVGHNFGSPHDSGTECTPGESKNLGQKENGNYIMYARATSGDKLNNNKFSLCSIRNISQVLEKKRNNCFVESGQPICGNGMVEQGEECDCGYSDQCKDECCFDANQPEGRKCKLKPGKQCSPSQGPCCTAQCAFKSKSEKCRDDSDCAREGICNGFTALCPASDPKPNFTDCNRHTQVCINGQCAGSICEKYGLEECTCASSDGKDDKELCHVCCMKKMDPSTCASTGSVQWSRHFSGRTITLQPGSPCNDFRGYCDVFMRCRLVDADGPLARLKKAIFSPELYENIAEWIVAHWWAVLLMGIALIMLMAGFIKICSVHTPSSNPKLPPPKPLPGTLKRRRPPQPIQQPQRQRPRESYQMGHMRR
Text: as §1, §2, §3, §4

[4] = target: T2, recombinant ADAM10; assay: Cleavage of fluorogenic CD62L peptide by recombinant ADAM10; type: biochemical; conditions: 2 μM compound
Text: A fluorescence based enzymatic assay was used to measure the cleavage of fluorogenic TNF-α and L-selectin (CD62L) peptides by either recombinant ADAMs or PBMC from healthy donors. The fluorogenic substrate, synthesized by Biomatik^3, was a Dabcyl (4-(4-dimethylaminophenylazo)benzoyl)- and Edans (5-[(2-aminoethyl)amino]naphthalene-1-sulfonic acid)- conjugated 12 amino acid peptide: Dabcyl-[…]-Edans that corresponds to the extracellular membrane proximal region of CD62L. The fluorescence of the Edans group is quenched by the Dabcyl group in the intact substrate and the cleavage of the CD62L substrate peptide results in a fluorescence emission at 490 nm. The cleavage of fluorogenic TNF-α peptide (ES003, R &D systems, Inc) was detected at emission of 405 nm. The cleavage was measured in a kinetic assay every 3 min for 4 h in black 96-well plates using a Synergy_h1 fluorescent plate reader (BioTek) with 340 nm excitation and 490 nm emission wavelengths. For cleavage using recombinant ADAMs, each enzymatic reaction contained 50–200 ng of recombinant ADAM17 or 10 (R&D systems, Inc) mixed with 5–10 μM fluorogenic TNFα peptide ES003 (R&D systems, Inc) or CD62L peptide with or without indicated inhibitors in 100 μL assay buffer of 25 mM Tris at pH 9.0, 2.5 μM ZnCl2, and 0.005% Brij-35 (w/v). For cell-based cleavage of the fluorescent CD62L-peptide substrate, 300,000 PBMC at 2×10^6/ml density were mixed with 10 μM fluorescent CD62L-peptide and various inhibitors in a black 96-well plate in 150 μL culture media (RPMI 1640, 10% FBS, 1% penicillin streptomycin). PBMC were stimulated with anti-CD3 antibody for 2–4 days as described above.
Supplemental Figure 3. Inhibition of ADAM10 enzymatic activity by 14mb. A) chemical structure of 3-Cl-phenylpyrrolidine tartrate diamide analogs 14m and 15. B)Inhibition of recombinant ADAM10 cleavage of a fluorogenic CD62L peptide substrate in the presence of titrating concentrations of 14mb. The concentration-dependent enzymatic activities are fitted with non-linear regression of normalized inhibition response model. C). Inhibition of ADAM10 enzymatic cleavage of fluorogenic CD62L peptide by various […]

[5] = test system: HIV-1BAL; assay: HIV-1BAL infection of CD8-depleted PBMC, FACS (intracellular p24, CD4, CD62L); type: cell-based
Text: The use of healthy human peripheral blood mononuclear cells (PBMC) is approved by the Department of Transfusion Medicine at the Clinical Center of National Institutes of Health. The use of PBMC from HIV-1 infected individuals for the study was approved under protocol #02-I-0202 by the Institutional Review Board (IRB) of National Institutes of Health with written informed consent from all donors. Peripheral blood mononuclear cells (PBMCs) from anonymous healthy donors were isolated by Ficoll-Paque gradient, and cultured in RPMI 1640 supplemented with 10% FBS, 1%Penicillin/streptomycin, 1% HEPES buffer and 20 U/mL IL-2 (culture media); and stimulated with 0.2 μg/mL anti-CD3 antibody (okt3) for 2 days. CD8^+ T cells were depleted prior to infection using the Stemcell CD8 positive selection kit according to manufacturer’s instructions. CD8-depleted PBMCs were plated at 2×10^6 cells/ml in 48-well plates in 1 mL culture media with various inhibitors for 60 min prior to the addition of ~80 TCID50 HIV-1BAL or HIV-1LAI. Inhibitors were replenished during media change every 3 days. The infections were proceeded with or without inhibitors for 6 days or otherwise specified number of days and then analyzed by FACS staining using fluorescent labeled CD4-BV510, CD62L-APC and CD3-PEC7 antibodies (BD Biosciences). Cells were then washed and permeabilized with CytoFix/CytoPerm (BD Biosciences) solution before intracellular staining for HIV p24 antigen using FITC conjugated anti-p24 antibody clone KC57 (Beckman Coulter, catalog 6604665). All assays were performed with cell viabilities >80%. Replication competent HIV-1 viruses were obtained from the NIH AIDS Reagent Program^4, and expanded by infecting activated CD8-depleted PBMCs, and TCID50 was determined by p24 ELISA.

[6] = target: T3, recombinant HIV-1 protease (Human immunodeficiency virus type 1 group M subtype B, UniProt P04585); assay: HIV-1 protease fluorogenic substrate cleavage; type: biochemical; conditions: 100nM saquinavir or nelfinavir; MMP inhibitors up to 10uM
T3 construct: recombinant HIV-1 protease; purchased Sigma-Aldrich SRP2151
Protocol: HIV-1 protease enzymatic activity was assayed in black 96-well plates at room temperature using a Synergy_h1 fluorescent plate reader with 340 nm excitation and 490 nm emission wavelengths (BioTek). Each enzymatic reaction consisted of a mixture of 100 ng of recombinant HIV-1 protease (Sigma-Aldrich catalog SRP2151), 5 μM concentration of a fluorogenic substrate Arg-Glu(EDANS)-[…]DABCYL)-Arg (Sigma-aldrich catalog H6660), and various concentrations of inhibitor compounds in 100 μL of assay buffer (0.15 M sodium chloride, 1.0 mM EDTA, 1.0 mM DTT, 0.1 M sodium acetate, pH 5.0). The fluorescence of the cleavage reaction was continuously read at every 30 s for a total of 40 min.

[7] = test system: CD62L shedding; assay: Soluble CD62L ELISA, unstimulated PBMC; type: cell-based, human; conditions: 10 μM compound, non-stimulated cells, ELISA
Protocol: PBMC from de-identified healthy donors were obtained with informed consent from the Department of Transfusion Medicine, National Institutes of Health under Biological reagent Registry RD-14-IX-12 approved by NIH biological safety board. CD8-depleted PBMCs, either stimulated or non-stimulated with 10 μg/mL phytohaemagglutinin (PHA) or anti-CD3 antibody (with or without conjugated beads), were plated at 2×10^6 cells/ml in 48 well plates in RPMI 1640 + 10%FBS (R10) to a final volume of 1 mL in each well. IL-2 was added at a final concentration of 20 U/mL. CD3 antibody okt3 was used at ~0.2 μg/mL final concentration. […] Supernatants were collected and assessed using either the CD62L or TNF-α Duo Set ELISA kit according to manufacturer's instructions (R&D Systems, Inc.). The viability of cells treated with compounds was assessed by acridine orange / propidiom iodide (AO/PI Logosbio catalog F23001) staining using Luna-FL cell counter following the manufacture's instruction.^2 […] Supplemental Figure 1. CD62L shedding from unstimulated PBMC. A) Soluble CD62L in the supernatant of unstimulated PBMC was measured By ELISA (R&D systems, Inc) after 24 hour treatment in the presence of 10 μM of […]), aminopeptidase (AP) protease inhibitors, respectively, or their untreated controls. Statistics were calculated using unpaired parametric student t-test between individual treatment and DMSO control. […] B) Viability of PBMC treated with 10-500 μM of MMP inhibitors for 24hours. […] Untreated DMSO AEBSF 3,4-Dichloroisocouman Granzyme B Inhibitor II Granzyme B Inhibitor IV Aprotinin […] 3 4 CD62L shedding from unstimulated PBMC Soluble CD62L (ng/ml) Inhibitor Class […] GI254023X 10 GI254023X 100 […] GI254023X 1000 GW280264X 10 GW280264X 100 […] GW280264X 1000 Marimastat 10 Marimastat 100 Marimastat 250 […]

[8] = test system: PBMC; assay: PBMC viability (AO/PI staining); type: cell-based, human; conditions: for PBMC viability at 24hr post treatment: 10-500 μM of MMP inhibitors for 24hours
Protocol: PBMC from de-identified healthy donors were obtained with informed consent from the Department of Transfusion Medicine, National Institutes of Health under Biological reagent Registry RD-14-IX-12 approved by NIH biological safety board. CD8-depleted PBMCs, either stimulated or non-stimulated with 10 μg/mL phytohaemagglutinin (PHA) or anti-CD3 antibody (with or without conjugated beads), were plated at 2×10^6 cells/ml in 48 well plates in RPMI 1640 + 10%FBS (R10) to a final volume of 1 mL in each well. IL-2 was added at a final concentration of 20 U/mL. CD3 antibody okt3 was used at ~0.2 μg/mL final concentration. Compounds were prepared in appropriate solvents according to the manufacturer’s instructions, diluted to working concentrations using RPMI 1640 + 10%FBS (R10), and added to the cell cultures for 6–24 h for CD62L shedding, and 48 h for TNF-α release. Supernatants were collected and assessed using either the CD62L or TNF-α Duo Set ELISA kit according to manufacturer’s instructions (R&D Systems, Inc.). The viability of cells treated with compounds was assessed by acridine orange / propidiom iodide (AO/PI Logosbio catalog F23001) staining using Luna-FL cell counter following the manufacture’s instruction.^2

[9] = 10 μM compound, stimulated cells, ELISA

T1 sequence (P78536 215-824): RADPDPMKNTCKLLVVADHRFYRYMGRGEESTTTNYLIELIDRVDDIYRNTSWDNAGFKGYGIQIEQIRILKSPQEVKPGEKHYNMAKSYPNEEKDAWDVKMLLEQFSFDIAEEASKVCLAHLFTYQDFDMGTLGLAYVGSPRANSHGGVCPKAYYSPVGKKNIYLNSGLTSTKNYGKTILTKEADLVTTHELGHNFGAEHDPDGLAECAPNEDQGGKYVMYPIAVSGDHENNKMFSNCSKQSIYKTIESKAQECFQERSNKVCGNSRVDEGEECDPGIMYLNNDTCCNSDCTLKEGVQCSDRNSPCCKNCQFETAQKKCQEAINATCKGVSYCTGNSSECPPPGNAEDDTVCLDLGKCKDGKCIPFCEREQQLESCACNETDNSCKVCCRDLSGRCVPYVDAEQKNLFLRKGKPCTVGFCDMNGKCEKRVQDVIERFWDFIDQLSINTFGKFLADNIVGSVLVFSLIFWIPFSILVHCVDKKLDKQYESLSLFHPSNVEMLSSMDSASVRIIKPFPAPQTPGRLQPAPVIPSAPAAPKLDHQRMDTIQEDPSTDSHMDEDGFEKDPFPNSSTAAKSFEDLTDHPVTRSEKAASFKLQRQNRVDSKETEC

With O=P([O-])([O-])C(Cl)(Cl)P(=O)(O)O.[Na+].[Na+] [DMDP, Dichloromethylenediphosphonic acid disodium salt] the “Shedding inhibition Stimulated” value [1, 9] was “− (0% inhibition)”, the “inhibition of ADAM17 cleavage of ES003” value [2] was “inhibited neither ADAM10 nor 17 enzymatic activities” and the “inhibition of ADAM10 cleavage of ES003” value [3] was “inhibited neither ADAM10 nor 17 enzymatic activities”. For the same molecule, the “inhibition of ADAM10 cleavage of CD62L substrate peptide” value [4] was “not”, the “accumulation of infected CD4−/CD62L− T cells (loss of CD62L)” value ([5]; HIV-1BAL infected cells) was “failed to prevent the loss of CD62L” and the “effect on HIV-1BAL infection (intracellular p24)” value ([5]; day 7 post infection, compounds at 100 μM, GI254023X at 250 μM) was “failed to inhibit HIV-1BAL infections”. The “effect on HIV protease cleavage of fluorogenic substrate” value (from here on “effect on HIV protease cleavage”) [6] was “none of the MMP inhibitors, including BB-94, prinomastat, GM6001 and DMDP, inhibited the activity of HIV protease”.
For CNC(=O)[C@@H](NC(=O)[C@H](CC(C)C)[C@H](O)C(=O)NO)C(C)(C)C [Marimastat], the inhibition at 10 µM ([1]; Homo sapiens, 10 μM compound, stimulated cells, ELISA) was > 50%, the inhibition at 10 µM ([7]; Homo sapiens, PBMC, read-out: Shedding inhibition Non-stim.) was > 50% and the “PBMC viability at day 6 post infection with HIV-1 BAL” value ([8]; 50uM) was “significant loss in cell viability”. The “PBMC viability at 24hr post treatment” value [8] was “No significant decrease in the viability”.
With Cc1c(O)cccc1C(=O)N[C@@H](CSc1ccccc1)[C@H](O)CN1C[C@H]2CCCC[C@H]2C[C@H]1C(=O)NC(C)(C)C [nelfinavir] the “effect on CD62L shedding from stimulated PBMC” value ([1]; titration of HAART compounds, concentration range tested) was “did not inhibit CD62L shedding”, the “p24 staining in HIV-1BAL infection of PBMC” value ([5]; day 6, 0.5μM compounds) was “no significant staining” and the “effect on HIV protease cleavage” value [6] was “suppressed the substrate cleavage by HIV protease”. The “PBMC viability at day 3 post treatment” value ([8]; 10uM) was “significant reduced cell viability”.
CC(C)(C)NC(=O)[C@@H]1C[C@@H]2CCCC[C@@H]2CN1C[C@@H](O)[C@H](Cc1ccccc1)NC(=O)[C@H](CC(N)=O)NC(=O)c1ccc2ccccc2n1 [saquinavir] was tested, and the “effect on HIV protease cleavage” value [6] was “suppressed the substrate cleavage by HIV protease”.
GW280264X was tested, and the “Shedding inhibition Stimulated” value [1, 9] was “+/− (<20)”, the “Shedding inhibition Non-stim.” value [7] was “+/− (<20)” and the “PBMC viability at 24hr post treatment” value [8] was “No significant decrease in the viability”.
